# Data published in patent US20240415801A1, “Methods and Compositions for Treating Fibroids” (Lundquist Institute for Biomedical Innovation at …, priority 2023, published 2024).
# Assays:
# fibroid xenografts [1] = assay: Quantitative RT-PCR of fibroid xenografts (Example 1); type: in vivo, SCID/Beige mice; details: 20 mg/kg daily, 8 weeks
# Description: Quantitative RT-PCR was performed as previously described. Selected gene expression levels were assessed utilizing the Invitrogen StepOne System, with normalization against 18S. Triplicate reactions were conducted, and relative mRNA expression was calculated using the comparative cycle threshold method (2−ΔΔCt), with results presented as fold change relative to the control group. The primer sequences used are shown in the following Sequence Table: […]
# [2] = system: leiomyoma smooth muscle cells (LSMC); assay: 3D spheroid culture of leiomyoma smooth muscle cells, qRT-PCR (Example 2); type: cell-based, human; details: 3D cultured LSMC, 5 μM, 24 h
# Description: Leiomyoma smooth muscle cells (LSMC) were cultured in DMEM supplemented with 10% fetal bovine serum until reaching confluence with a change of media every 2-3 days. Cells at passages p1 to p3 were used for all experiments. Isolated LSMC were plated in 6-well plates (1.5×10^5 cells/well) which were coated with 0.5% agarose gel and incubated 48 hours for spheroid formation with size ranging from 50 μm to 250 μm in diameter (1). For blocking IκBα phosphorylation and nuclear translocation of NFκB, LSMC spheroids were treated with 5 μM of Bay 11-7082 (Cayman Chemical, Ann Arbor, Michigan) for 24 hours. […]
# Total RNA was extracted from the xenografts using TRIzol (Thermo Fisher Scientific Inc., Waltham, MA). RNA concentration and integrity was determined using a Nanodrop 2000c spectrophotometer (Thermo Scientific, Wilmington, DE) and Agilent 2100 Bioanalyzer (Agilent Technologies, Santa Clara, CA) as previously described (7, 8). […] Quantitative RT-PCR was carried out using SYBR gene expression master mix (Applied Biosystems). […] The expression levels of selected genes were quantified using Invitrogen StepOne System with FBXW2 (F-box and WD repeat domain containing 2) used for normalization (9). All reactions were run in triplicate and relative mRNA expression was determined using the comparative cycle threshold method (2−ΔΔCq), as recommended by the supplier (Applied Biosystems). […]
# fibroid xenografts [3] = assay: Quantitative RT-PCR of xenografts (Example 2); type: in vivo, SCID/Beige mice; details: 5 mg/kg, 8 weeks, n=13
# Description: Total RNA was extracted from the xenografts using TRIzol (Thermo Fisher Scientific Inc., Waltham, MA). RNA concentration and integrity was determined using a Nanodrop 2000c spectrophotometer (Thermo Scientific, Wilmington, DE) and Agilent 2100 Bioanalyzer (Agilent Technologies, Santa Clara, CA) as previously described (7, 8). Briefly, 2 μg of RNA was reverse transcribed using random primers for selected genes according to the manufacturer's guidelines (Applied Biosystems, Carlsbad, CA). Quantitative RT-PCR was carried out using SYBR gene expression master mix (Applied Biosystems). Reactions were incubated for 10 min at 95° C. followed by 40 cycles for 15 seconds at 95° C. and 1 min at 60° C. The expression levels of selected genes were quantified using Invitrogen StepOne System with FBXW2 (F-box and WD repeat domain containing 2) used for normalization (9). All reactions were run in triplicate and relative mRNA expression was determined using the comparative cycle threshold method (2−ΔΔCq), as recommended by the supplier (Applied Biosystems). Values were expressed as fold change compared to the control group. […]
# human fibroid explants = assay: Fibroid explant culture, qRT-PCR; type: cell-based; details: 5 μM, 48 hours
# Description: Quantitative RT-PCR was performed as previously described. Selected gene expression levels were assessed utilizing the Invitrogen StepOne System, with normalization against 18S. Triplicate reactions were conducted, and relative mRNA expression was calculated using the comparative cycle threshold method (2−ΔΔCt), with results presented as fold change relative to the control group. The primer sequences used are shown in the following Sequence Table:
# Equal weights of fibroid explants, aseptically cut from the same patient, were plated in 6-well plates containing complete medium. They were then incubated for 48 hours with either vehicle or Bay (5 μM).
# fibroid xenografts [4] = assay: RNA sequencing of fibroid xenografts (Example 1); type: in vivo, SCID/Beige mice; details: for number of downregulated transcripts (RNAseq) / number of upregulated transcripts (RNAseq): cutoff 1.5 fold, xenografts after two months, n=4 vs 4 vehicle
# [5] = xenografts, 20 mg/kg daily, two months
structure (smiles),measurement,setting,value
Cc1ccc(S(=O)(=O)/C=C/C#N)cc1 [Bay 11-7082],expression of miR-29c and miR-200c,fibroid xenografts [1],significant increase
same,"mRNA expression of SPARC, TDO2, MYD88, TLR6, TLR3, IL6, TNFα, TNFRSF11A, IL1β, COL3A1, FN1, LOX, TGFB3, CCND1, E2F1, CKS2, PRL, ESR1, PGR, VEGFC, PDGFA, HTR1B",fibroid xenografts [1]; n=10,significant decrease
same,"expression of IL8, TGFB3, Col3A1, CDK2, CCND1, DNMT1 and DNMT3A",[2],significant decrease
same,"mRNA expression of COL1A1, COL3A1, FN1, TGF-β3, CCND1, CDK2, E2F1, EZH2, MyD88 and SPARC",fibroid xenografts [3],significant decrease
same,"mRNA levels of TLR3, TLR6, MyD88, TNFα, ESR1, HTR1B, TNFRSF11A",human fibroid explants,without significant effects
same,"mRNA levels of VEGFC, TDO2, TGFB3, LOX, E2F1, PRL, PGR, CKS2, SPARC, COL3A1, FN1, CCND1, IL8, IL6, IL1β",human fibroid explants,significant inhibition
same,expression of miR-29c and miR-200c,human fibroid explants; fibroid explants,significant increase
same,number of downregulated transcripts (RNAseq),fibroid xenografts [4],629
same,number of upregulated transcripts (RNAseq),fibroid xenografts [4],374
same,number of downregulated transcripts (RNAseq),fibroid xenografts [4]; listed as Bay,374
same,number of upregulated transcripts (RNAseq),fibroid xenografts [4]; listed as Bay,629
same,RNAseq: expression of TDO2 and serotonin receptor HTR1B,fibroid xenografts [4]; [5],significantly inhibited
same,"RNAseq: expression of growth factors (IGF1, EGF, PDGF, FGF8, PRL, TGFB3) and ECM components (COL3A1, KRT10)",fibroid xenografts [4]; [5],decrease
same,"RNAseq: genes of cell proliferation, mitosis, mitotic apparatus, cytokinesis (Ki67, E2F1, CCND1, CCNB1, CCNA2, BUB1, CKS2 and others)",fibroid xenografts [4]; [5],downregulated
same,"RNAseq: pro-inflammatory cytokines (IL1a, IL1b, TNF, IL6, IL15, IL7R, TNFRSF11A), TLR3, TLR6, chemokines (CXCCR4, CCR5, CCL3, CCL5)",fibroid xenografts [4]; [5],downregulation
same,"RNAseq: vWF, ICAM1, ITGAX, SOX2, CXCL8, IL10, IL13","fibroid xenografts [4]; xenografts, two months, significant variation among animals",up-regulated
